“Also recorded” adds a separate entry of the source.

In experiment [1] the test system is Hem-A plasma. Put plainly: dPT assay, anti-coagulant activity of NASPs in Hem-A plasma. The format is biochemical, human. The note with it: for clotting time, dPT: Hem-A plasma without NASP 41.5 seconds; for inherent anticoagulant activity: concentrations up to 5000 nM; for prolongation of clotting time: concentrations>5000 nM. As for the experimental part:
(§1) The dPT assay used was a modified standard clinical PT assay (Nordfang et al. (1991) Thromb Haemost 66:464-467; Welsch et al. (1991) Thrombosis Research 64: 213-222). SIMPLASTIN EXCEL thromboplastin reagent (Organon Teknika) was reconstituted with the manufacturer's diluent and further diluted 1:100 in 0.9% saline. The thromboplastin reagent, 25 mM CaCl2, and plasma samples were pre-warmed to 37° C. before initiating the assay. 100 μl of thawed plasma was aliquoted into microcentrifuge tubes. […] 100 μl of the diluted thromboplastin reagent and 100 μl of 25 mM CaCl2 were added to fibrin cups (Fisher) prewarmed to 37° C. 100 μl of plasma (normal or hemophilic) containing the test agent or saline control was added to the fibrin cups containing the thromboplastin reagent and CaCl2 to initiate clotting. The time for plasma clotting was measured with a BBL FIBROSYSTEM fibrometer.
Test compounds were diluted to 100 μM, 10 μM, 2 μM and 200 nM. For each test compound, 12.5 μl of a diluted solution containing the test compound was added to 237.5 μl of Hem-A plasma and incubated at room temperature. 100 μl of plasma containing the test compound was removed for dPT assays of plasma clotting time as described in Example 2.

The target in experiment [2] is T1, TFPI (Homo sapiens, UniProt P10646).
T1 construct: purchased American Diagnostica (Stamford, Conn.)
T1 sequence (P10646 29-304): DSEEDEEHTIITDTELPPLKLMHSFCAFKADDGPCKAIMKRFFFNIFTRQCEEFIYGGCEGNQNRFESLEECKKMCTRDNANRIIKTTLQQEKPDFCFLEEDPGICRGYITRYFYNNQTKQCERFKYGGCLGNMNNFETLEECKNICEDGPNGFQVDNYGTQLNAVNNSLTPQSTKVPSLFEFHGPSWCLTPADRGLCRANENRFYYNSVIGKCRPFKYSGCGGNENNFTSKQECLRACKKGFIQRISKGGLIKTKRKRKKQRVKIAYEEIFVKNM
Put plainly: dPT assay, inhibition of TFPI activity in Hem-A plasma, TFPI preincubated with NASP. The format is biochemical. The conditions noted are these: for TFPI-neutralizing activity: FIGS. 4-6 / data not shown; for clotting time, dPT: Hem-A + TFPI, plasma alone 44, + TFPI 151 seconds. Here is the method: as §1
(§2) Inhibition of TFPI activity by NASPs was assessed in dPT clotting assays with normal or hemophilic plasma and added recombinant TFPI. Diluted recombinant TFPI was preincubated with NASPs for 5 minutes at room temperature before plasma was added. After addition of plasma, the mixture was incubated for an additional 25 minutes followed by dPT initiation.

For experiment [3], the system named is Hem-A plasma. Put plainly: dPT assay, Hem-A plasma in absence of exogenous TFPI. The format is biochemical, human. The note with it: dPT. As for the experimental part:
as §1
The ability of NASPs to accelerate clotting of factor-deficient plasma in the absence of TFPI supplementation was also tested in dPT assays. A procoagulant response, if observed, may be related to neutralization of endogenous TFPI activity, which is present in human plasma at approximately 100 ng/ml (Nordfang et al., supra), largely associated with lipoprotein or platelets (Broze et al. (1992) Semin. Hematol. 29:159-169; Broze et al. (2003) J. Thromb. Haemost. 1:1671-1675).
The ability of NASPs to accelerate clotting of Hem-A plasma in the absence of exogenous TFPI was tested. Fucoidan or PPS were titrated into Hem A plasma and dPT assays were performed. Additionally, the dose-response to factor VIIa was analyzed as a positive control for amplifying extrinsic pathway activation.

Experiment [4] concerns Hem-A plasma containing 1.25% FACT plasma. Put plainly: aPTT assay, NASPs in 1.25% FACT diluted in Hem-A plasma. In kind it is biochemical, human. Here is the method:
Activated Partial Thromboplastin Time (aPTT) Assay The aPTT assay was performed as described previously with modifications (PDR Staff Physicians' Desk Reference. 2004, Anderson Lo, Barrowcliffe, T. W., Holmer, E., Johnson, E. A., Sims, G. E. C. Thromb. Res. 1976; 9:575-580). 25 mM CaCl2 and fibrin cups (Fisher) were pre-warmed to 37° C. 0.1 ml of thawed human plasma (normal or hemophilic) was added to warmed test tubes. 5 μl of saline (e.g. Sigma) or 5 μl of test agent (e.g., NASP) dissolved in saline was incubated with 95 μl of plasma for 30 minutes at room temperature. APTT reagent (e.g. Organon Teknika) was reconstituted in 3 ml distilled water and 0.1 ml of the reconstituted solution containing the APTT reagent was added to each test tube. 0.2 ml of plasma containing the test agent or saline control and aPTT reagent were transferred from test tubes to pre-warmed fibrin cups and incubated for 2-3 minutes. 0.1 ml of pre-warmed 25 mM CaCl2 was added to initiate clotting, and the time for plasma clotting was measured with a BBL FIBROSYSTEM fibrometer.
The effect of NASPs on the clotting time of plasma was determined as follows: 5 μl of a NASP was added to 95 μl of 1.25% FACT diluted in human Hem-A plasma and incubated at room temperature for 30 minutes. aPTT assays were performed to determine plasma clotting time as described in Example 1.

For experiment [5], the target named is T1, TFPI. Put plainly: dPT assay, inhibition of TFPI activity in Hem-B plasma, TFPI preincubated with NASP. The format is biochemical. The conditions noted are these: Hem-B + TFPI, plasma alone 46, + TFPI 101 seconds. Here is the method:
as §1, §2
The acceleration of plasma clotting by the NASPs in the presence of TFPI was also tested in Hem-B and normal plasma.

In experiment [6] the target is T1, TFPI. Put plainly: dPT assay, inhibition of TFPI activity in Hem-A plasma without preincubation. In kind it is biochemical. The note with it: Hem-A + TFPI, no preincubation, HemA + TFPI 183, alone 45 seconds. Here is the method: as §1
Experiments were repeated without a preincubation of the sulfated polysaccharides with TFPI prior to exposure to plasma. To extend the stringency of the test for NASP inhibition of TFPI activity, TFPI was added to the plasma before the NASP was added.

On to “De-N-Sulfated-Acetylated-Heparin [De-N—S-AH]”, for which the “clotting time, dPT” value stood at 39 s in experiment [1] (10 nM), 37 s in experiment [1] (100 nM), 40 s in experiment [1] (500 nM) and 55 s in experiment [1] (5000 nM). Also, the inherent anticoagulant activity entry in experiment [1] is given as “failed to show inherent anticoagulant activity”. Besides, the TFPI-neutralizing activity result in experiment [2] (dPT) was “did not exhibit any TFPI-neutralizing activity”. Also, the “acceleration of hemophilic plasma clotting in the absence of TFPI addition” value (“acceleration” for short) in experiment [3] is reported as “failed to accelerate clotting times”.
With De-N-Sulfated-Heparin [De-N-SH], the “clotting time, dPT” value worked out at 40 s in experiment [1] (10 nM), 38 s in experiment [1] (100 nM), 38 s in experiment [1] (500 nM) and 41 s in experiment [1] (5000 nM). Further, in experiment [1], the inherent anticoagulant activity result is listed as “failed to show inherent anticoagulant activity”. In addition, the “prolongation of clotting time” value in experiment [1] (dPT) is given as “little or no prolongation of clotting time”. Also, the TFPI-neutralizing activity entry in experiment [2] (dPT) is listed as “did not exhibit any TFPI-neutralizing activity”. Also, in experiment [3], the “acceleration” value was “failed to accelerate clotting times”.
Turning to N-Acetyl-Heparin [NAH], the “clotting time, dPT” value in experiment [1] (10 nM) turned out to be 38 s; in experiment [1] (100 nM), 37 s; in experiment [1] (500 nM), 36 s; in experiment [1] (5000 nM), 38 s; in experiment [2] (0.16 nM, preincubation) it was 144 s; in experiment [2] (0.8 nM, preincubation), 158 s. Besides, the “clotting time, dPT” value in experiment [2] (4 nM, preincubation) was 160 s; in experiment [2] (20 nM, preincubation), 141 s; in experiment [2] (100 nM, preincubation), 99 s; in experiment [2] (500 nM, preincubation), 84 s; in experiment [5] (0.16 nM), 102 s; in experiment [5] (0.8 nM) it was 101 s. In addition, the “clotting time, dPT” value in experiment [5] (4 nM) was 106 s; in experiment [5] (20 nM), 106 s; in experiment [5] (100 nM) it was 94 s; in experiment [5] (500 nM), 68 s; in experiment [6] (0.8 nM) it was 165 s; in experiment [6] (4 nM), 180 s. The entries for the “clotting time, dPT” value in experiment [6] (20 nM), in experiment [6] (100 nM) and in experiment [6] (500 nM) were 184 s, 125 s and 89 s, respectively. Besides, in experiment [1] (dPT), the “prolongation of clotting time” value was “little or no prolongation of clotting time”. Besides, the “clotting time, aPTT” value worked out at 70 s in experiment [4] (0.8 nM); 69 s in experiment [4] (4 nM); 67 s in experiment [4] (20 nM); 74 s in experiment [4] (100 nM); 85 s in experiment [4] (500 nM). For the same substance, in experiment [4] (APTT, Hem-A plasma), the “concentration producing approximately 50% prolongation in clotting time, fold higher than for heparin” value is on record as > 500 fold. The TFPI-neutralizing activity entry in experiment [2] (dPT) is recorded as “only weak TFPI-neutralizing activity”. The “concentration that accelerates (shortens) clotting of Hem-A plasma containing TFPI” value in experiment [2] (dPT, preincubation) is reported as “approximately 100 nM”. The “acceleration” value in experiment [3] was “had no activity; also recorded: did not accelerate hemophilic plasma clotting times”.
For “N-Acetyl-de-O-Sulfated-Heparin [NA-de-O-SH]”, the “clotting time, dPT” value in experiment [1] (10 nM), in experiment [1] (100 nM), in experiment [1] (500 nM) and in experiment [1] (5000 nM) was 40 s each time. The inherent anticoagulant activity entry in experiment [1] is given as “failed to show inherent anticoagulant activity”. The “prolongation of clotting time” value in experiment [1] (dPT) is listed as “little or no prolongation of clotting time”. Moreover, in experiment [2] (dPT), the TFPI-neutralizing activity entry is recorded as “did not exhibit any TFPI-neutralizing activity”. Moreover, the “acceleration” value in experiment [3] was “failed to accelerate clotting times”.
For Sodium Heparin, the “clotting time, dPT” value was 40 s in experiment [1] (10 nM), 92 s in experiment [1] (100 nM) and 400 s in experiment [1] (500 nM). The anticoagulant activity entry in experiment [1] (dPT, concentrations exceeding 10 nM) is listed as “markedly anticoagulant”. Further, the “clotting time, aPTT” value was 70 s in experiment [4] (0.8 nM); 70 s in experiment [4] (4 nM); 200 s in experiment [4] (20 nM); “Not clotted” in experiment [4] (100 nM); “Not clotted” in experiment [4] (500 nM). The “effect on clotting time of Hem-A plasma containing TFPI” value in experiment [2] (dPT, not shown) is “only prolonged clotting times”.

Values taken from patent US8771973B2, “Methods for treating bleeding disorders using sulfated polysaccharides” (Baxter Healthcare S.A., priority 2004, dated 2014).
